Assay results reported in patent US9399646B2 (Genentech, Inc., priority 2010, dated 2016).

What was measured:
MCF-7 cells = experiment: Breast cancer cell viability assay (CellTiter-Glo, 5 days); assay type: cell-based; details: 5 days' compound exposure; for IC50: Homo sapiens, MCF7, 120 h
Procedure, shortened: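 MCF-7 cells, 320 per well in RPMI with 10% FBS and 20 mM HEPES, adhered overnight, then exposed 5 days to an eleven-point semilog dilution (final 0.3-0.000003 μM). CellTiter-Glo luminescence read; % viability = (sample − cell-free background)/(untreated − background) × 100.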

ER-α in MCF-7 cells = target: T1, ER-α in MCF-7 cells (Homo sapiens, UniProt P03372); experiment: Breast cancer cell ER-α in cell western assay (SP1); assay type: cell-based; parameters: endogenous in cells; host or cells: MCF-7; details: 4 or 24 hr post compound addition; for Emax: MCF7, SP1 antibody, read-out: ER-α In Cell Western Assay (SP1) Max Response; for DC50: SP1 antibody, read-out: ER-α In Cell Western Assay (SP1) IC50
T1 sequence (P03372 1-595): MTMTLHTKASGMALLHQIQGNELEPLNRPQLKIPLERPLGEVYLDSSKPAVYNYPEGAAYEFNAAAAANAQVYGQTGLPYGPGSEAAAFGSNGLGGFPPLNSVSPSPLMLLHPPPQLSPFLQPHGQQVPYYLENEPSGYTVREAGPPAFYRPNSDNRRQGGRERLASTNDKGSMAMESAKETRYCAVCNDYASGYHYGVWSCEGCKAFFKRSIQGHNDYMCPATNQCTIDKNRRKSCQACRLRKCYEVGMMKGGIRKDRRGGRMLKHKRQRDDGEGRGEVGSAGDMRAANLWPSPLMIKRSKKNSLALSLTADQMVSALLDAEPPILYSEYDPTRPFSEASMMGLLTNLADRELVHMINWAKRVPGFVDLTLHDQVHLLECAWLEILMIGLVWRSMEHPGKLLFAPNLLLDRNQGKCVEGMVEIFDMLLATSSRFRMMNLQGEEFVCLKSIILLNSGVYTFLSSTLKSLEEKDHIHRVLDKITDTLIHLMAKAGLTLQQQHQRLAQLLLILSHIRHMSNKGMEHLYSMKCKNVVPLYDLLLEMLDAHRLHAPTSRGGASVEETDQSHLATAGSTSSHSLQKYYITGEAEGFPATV
Procedure, shortened: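 Read-out is infrared in-cell western: SP1-detected ER intensity at 800 nm divided by DRAQ5 DNA intensity at 700 nm, relative to untreated wells ×100.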

IC50 (MCF-7 cells) [nM]	Emax (ER-α in MCF-7 cells) [%]	DC50 (ER-α in MCF-7 cells) [nM]	SMILES	MCF7 Viability Assay Max Response (MCF-7 cells)
≤ 100	≥ 40	≤ 100	CCCS(=O)(=O)NC(=O)/C=C/c1ccc(/C(=C(/CC)c2ccc(F)cc2Cl)c2ccc3[nH]ncc3c2)cc1 [Compound 409, (E)-3-(4-((E)-2-(2-Chloro-4-fluorophenyl)-1-(1H-indazol-5-yl)but-1-en-1-yl)phenyl)-N-(propylsulfonyl)acrylamide]	++ (++ = a single % value ≧ 40%)
≤ 100	≥ 40	≤ 100	CCCCCS(=O)(=O)NC(=O)/C=C/c1ccc(/C(=C(/CC)c2ccc(F)cc2Cl)c2ccc3[nH]ncc3c2)cc1 [Compound 410, (E)-3-(4-((E)-2-(2-Chloro-4-fluorophenyl)-1-(1H-indazol-5-yl)but-1-en-1-yl)phenyl)-N-(pentylsulfonyl)acrylamide]	++ (++ = a single % value ≧ 40%)
≤ 100	≥ 40	≤ 100	CNC(=O)/C=C/c1ccc(/C(=C(\c2ccccc2)C2CCC2)c2ccc3c(cnn3C)c2)cc1 [Compound 411, (E)-3-(4-((E)-2-Cyclobutyl-1-(1-methyl-1H-indazol-5-yl)-2-phenylvinyl)phenyl)-N-methylacrylamide]	++ (++ = a single % value ≧ 40%)
≤ 100	≥ 40	≤ 100	CNC(=O)/C=C/c1ccc(/C(=C(\c2ccccc2)C2CCC2)c2ccc3[nH]ncc3c2)cc1 [Compound 412, (E)-3-(4-((E)-2-Cyclobutyl-1-(1H-indazol-5-yl)-2-phenylvinyl)phenyl)-N-methylacrylamide]	++ (++ = a single % value ≧ 40%)
≤ 100	≥ 40	≤ 100	O=C(/C=C/c1ccc(/C(=C(\c2ccccc2)C2CCC2)c2ccc3[nH]nc(F)c3c2)cc1)NC1CC1 [Compound 413, (E)-3-(4-((E)-2-Cyclobutyl-1-(3-fluoro-1H-indazol-5-yl)-2-phenylvinyl)phenyl)-N-cyclopropylacrylamide]	++ (++ = a single % value ≧ 40%)
≤ 100	≥ 40	≤ 100	O=C(/C=C/c1ccc(/C(=C(\c2ccccc2)C2CCC2)c2ccc3[nH]nc(F)c3c2)cc1)NCCO [Compound 414, (E)-3-(4-((E)-2-Cyclobutyl-1-(3-fluoro-1H-indazol-5-yl)-2-phenylvinyl)phenyl)-N-(2-hydroxyethyl)acrylamide]	++ (++ = a single % value ≧ 40%)
≤ 100	≥ 40	≤ 100	O=C(/C=C/c1ccc(/C(=C(\c2ccccc2)C2CCC2)c2ccc3[nH]nc(F)c3c2)cc1)NCC(F)(F)F [Compound 415, (E)-3-(4-((E)-2-Cyclobutyl-1-(3-fluoro-1H-indazol-5-yl)-2-phenylvinyl)phenyl)-N-(2,2,2-trifluoroethyl)acrylamide]	++ (++ = a single % value ≧ 40%)
≤ 100	≥ 40	≤ 100	CC/C(=C(/c1ccc(/C=C/C(=O)NS(C)(=O)=O)cc1)c1ccc2scnc2c1)c1ccc(F)cc1Cl [Compound 416, (E)-3-(4-((E)-1-(Benzo[d]thiazol-5-yl)-2-(2-chloro-4-fluorophenyl)but-1-en-1-yl)phenyl)-N-(methylsulfonyl)acrylamide]	++ (++ = a single % value ≧ 40%)
≤ 100	≥ 40	≤ 100	CC/C(=C(/c1ccc(/C=C/C(N)=O)cc1)c1ccc2[nH]ncc2c1)c1ccc(F)cc1Cl [Compound 417, (E)-3-(4-((E)-2-(2-Chloro-4-fluorophenyl)-1-(1H-indazol-5-yl)but-1-en-1-yl)phenyl)acrylamide]	++ (++ = a single % value ≧ 40%)
≤ 100	≥ 40	≤ 100	CC/C(=C(/c1ccc(/C=C/C(=O)NO)cc1)c1ccc2[nH]ncc2c1)c1ccccc1 [Compound 418, (E)-3-(4-((E)-1-(1H-Indazol-5-yl)-2-phenylbut-1-en-1-yl)phenyl)-N-hydroxyacrylamide]	++ (++ = a single % value ≧ 40%)
≤ 100	≥ 40	≤ 100	CC/C(=C(/c1ccc(/C=C/C(=O)NC(C)C)cc1)c1ccc2[nH]ncc2c1)c1ccccc1 [Compound 419, (E)-3-(4-((E)-1-(1H-Indazol-5-yl)-2-phenylbut-1-en-1-yl)phenyl)-N-isopropylacrylamide]	++ (++ = a single % value ≧ 40%)
≤ 100	≥ 40	≤ 100	CC/C(=C(/c1ccc(/C=C/C(=O)NC)cc1)c1ccc2[nH]ncc2c1)c1ccc(F)cc1Cl [Compound 420, (E)-3-(4-((E)-2-(2-Chloro-4-fluorophenyl)-1-(1H-indazol-5-yl)but-1-en-1-yl)phenyl)-N-methylacrylamide]	++ (++ = a single % value ≧ 40%)
≤ 100	≥ 40	≤ 100	CC/C(=C(/c1ccc(/C=C/C(=O)NOC)cc1)c1ccc2[nH]ncc2c1)c1ccc(F)cc1Cl [Compound 421, (E)-3-(4-((E)-2-(2-Chloro-4-fluorophenyl)-1-(1H-indazol-5-yl)but-1-en-1-yl)phenyl)-N-methoxyacrylamide]	++ (++ = a single % value ≧ 40%)
≤ 100	≥ 40	≤ 100	CC/C(=C(/c1ccc(/C=C/C(=O)N(C)OC)cc1)c1ccc2[nH]ncc2c1)c1ccc(F)cc1Cl [Compound 422, (E)-3-(4-((E)-2-(2-Chloro-4-fluorophenyl)-1-(1H-indazol-5-yl)but-1-en-1-yl)phenyl)-N-methoxy-N-methylacrylamide]	++ (++ = a single % value ≧ 40%)
≤ 100	≥ 40	≤ 100	CC/C(=C(/c1ccc(/C=C/C(=O)NS(C)(=O)=O)cc1)c1ccc2[nH]ncc2c1)c1ccccc1 [Compound 423, (E)-3-(4-((E)-1-(1H-Indazol-5-yl)-2-phenylbut-1-en-1-yl)phenyl)-N-(methylsulfonyl)acrylamide]	++ (++ = a single % value ≧ 40%)
> 100	≥ 40	≤ 100	CC/C(=C(/c1ccc(/C=C/C(=O)NS(C)(=O)=O)cc1)c1ccc2c(cnn2C)c1)c1ccc(F)cc1Cl [Compound 424, (E)-3-(4-((E)-2-(2-Chloro-4-fluorophenyl)-1-(1-methyl-1H-indazol-5-yl)but-1-en-1-yl)phenyl)-N-(methylsulfonyl)acrylamide]	++ (++ = a single % value ≧ 40%)
≤ 100	≥ 40	≤ 100	CC/C(=C(/c1ccc(/C=C/C(=O)Nc2nn[nH]n2)cc1)c1ccc2[nH]ncc2c1)c1ccc(F)cc1Cl [Compound 425, (E)-3-(4-((E)-2-(2-Chloro-4-fluorophenyl)-1-(1H-indazol-5-yl)but-1-en-1-yl)phenyl)-N-(2H-tetrazol-5-yl)acrylamide]	++ (++ = a single % value ≧ 40%)
≤ 100	≥ 40	≤ 100	CC/C(=C(/c1ccc(/C=C/C(N)=O)cc1)c1ccc2scnc2c1)c1ccccc1 [Compound 426, (E)-3-(4-((E)-1-(Benzo[d]thiazol-5-yl)-2-phenylbut-1-en-1-yl)phenyl)acrylamide]	++ (++ = a single % value ≧ 40%)
